In PubChem BioAssay (NCI):
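1) Cells in 96-well plates. 2) Compound, 48 h, 5 concentrations. 3) Linear interpolation between surrounding doses. 4) Unreached endpoint = highest concentration. Definition used: TGI = concentration required for complete inhibition of growth.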

Columns and labels:
Experiment in all cases: DTP human tumour cell line panel, 48 h
HL-60(TB) leukemia = system: HL-60(TB) leukemia
UO-31 renal = system: UO-31 renal
EKVX NSCLC = system: EKVX NSCLC
HCT-15 colon = system: HCT-15 colon
M14 melanoma = system: M14 melanoma
CAKI-1 renal = system: CAKI-1 renal
MDA-MB-231 breast = system: MDA-MB-231 breast
CCRF-CEM leukemia = system: CCRF-CEM leukemia
SR leukemia = system: SR leukemia
UACC-62 melanoma = system: UACC-62 melanoma
SNB-19 CNS = system: SNB-19 CNS
SF-295 CNS = system: SF-295 CNS
PC-3 prostate = system: PC-3 prostate
786-0 renal = system: 786-0 renal
K-562 leukemia = system: K-562 leukemia
A498 renal = system: A498 renal
HCC-2998 colon = system: HCC-2998 colon
RXF 393 renal = system: RXF 393 renal
COLO 205 colon = system: COLO 205 colon
SF-539 CNS = system: SF-539 CNS
HOP-92 NSCLC = system: HOP-92 NSCLC
MDA-N = system: MDA-N
NCI/ADR-RES ovarian = system: NCI/ADR-RES ovarian
SK-MEL-28 melanoma = system: SK-MEL-28 melanoma
T-47D breast = system: T-47D breast
NCI-H522 lung = system: NCI-H522 lung
HS 578T breast = system: HS 578T breast
MDA-MB-435 = system: MDA-MB-435
MCF7 breast = system: MCF7 breast
SW-620 colon = system: SW-620 colon
LOX IMVI melanoma = system: LOX IMVI melanoma
HOP-62 NSCLC = system: HOP-62 NSCLC
SK-MEL-2 melanoma = system: SK-MEL-2 melanoma
NCI-H226 lung = system: NCI-H226 lung
HT29 colon = system: HT29 colon
U251 CNS = system: U251 CNS
NCI-H23 lung = system: NCI-H23 lung
KM12 colon = system: KM12 colon
RPMI-8226 leukemia = system: RPMI-8226 leukemia
TK-10 renal = system: TK-10 renal
SN12C renal = system: SN12C renal
NCI-H460 lung = system: NCI-H460 lung
SK-OV-3 ovarian = system: SK-OV-3 ovarian
OVCAR-3 ovarian = system: OVCAR-3 ovarian
HCT-116 colon = system: HCT-116 colon
DU-145 prostate = system: DU-145 prostate
SNB-75 CNS = system: SNB-75 CNS
ACHN renal = system: ACHN renal
A549 NSCLC = system: A549 NSCLC
UACC-257 melanoma = system: UACC-257 melanoma
OVCAR-8 ovarian = system: OVCAR-8 ovarian
SK-MEL-5 melanoma = system: SK-MEL-5 melanoma
OVCAR-4 ovarian = system: OVCAR-4 ovarian
OVCAR-5 ovarian = system: OVCAR-5 ovarian
SF-268 CNS = system: SF-268 CNS
BT-549 breast = system: BT-549 breast
IGROV1 ovarian = system: IGROV1 ovarian
MOLT-4 leukemia = system: MOLT-4 leukemia
MALME-3M melanoma = system: MALME-3M melanoma

SMILES: COC(=O)c1cnc(Cl)c([N+](=O)[O-])c1
- TGI (HL-60(TB) leukemia): 5.73 µM
- TGI (UO-31 renal): 3.55 µM
- TGI (EKVX NSCLC): 3.28 µM
- TGI (HCT-15 colon): 4.21 µM
- TGI (M14 melanoma): 27 µM
- TGI (CAKI-1 renal): 25.7 µM
- TGI (MDA-MB-231 breast): 30.1 µM
- TGI (CCRF-CEM leukemia): 5.1 µM
- TGI (SR leukemia): 4.24 µM
- TGI (UACC-62 melanoma): 32.1 µM
- TGI (SNB-19 CNS): 32.4 µM
- TGI (SF-295 CNS): 33.5 µM
- TGI (PC-3 prostate): 22.6 µM
- TGI (786-0 renal): 11.2 µM
- TGI (K-562 leukemia): 4.8 µM
- TGI (A498 renal): 40 µM
- TGI (HCC-2998 colon): 21.5 µM
- TGI (RXF 393 renal): 25.1 µM
- TGI (COLO 205 colon): 12.2 µM
- TGI (SF-539 CNS): 32.1 µM
- TGI (HOP-92 NSCLC): 4.25 µM
- TGI (MDA-N): 20.1 µM
- TGI (NCI/ADR-RES ovarian): 68.3 µM
- TGI (SK-MEL-28 melanoma): 36 µM
- TGI (T-47D breast): 4.68 µM
- TGI (NCI-H522 lung): 3.28 µM
- TGI (HS 578T breast): 76.4 µM
- TGI (MDA-MB-435): 19.4 µM
- TGI (MCF7 breast): 4.34 µM
- TGI (SW-620 colon): 4.78 µM
- TGI (LOX IMVI melanoma): 3.68 µM
- TGI (HOP-62 NSCLC): 36.5 µM
- TGI (SK-MEL-2 melanoma): 31.5 µM
- TGI (NCI-H226 lung): 36.5 µM
- TGI (HT29 colon): 32.6 µM
- TGI (U251 CNS): 4.23 µM
- TGI (NCI-H23 lung): 35.2 µM
- TGI (KM12 colon): 35 µM
- TGI (RPMI-8226 leukemia): 5.3 µM
- TGI (TK-10 renal): 30.3 µM
- TGI (SN12C renal): 25.8 µM
- TGI (NCI-H460 lung): 31.5 µM
- TGI (SK-OV-3 ovarian): 33.8 µM
- TGI (OVCAR-3 ovarian): 28.7 µM
- TGI (HCT-116 colon): 8.77 µM
- TGI (DU-145 prostate): 21.3 µM
- TGI (SNB-75 CNS): 34.8 µM
- TGI (ACHN renal): 25.1 µM
- TGI (A549 NSCLC): 41.6 µM
- TGI (UACC-257 melanoma): 20.3 µM
- TGI (OVCAR-8 ovarian): 3.95 µM
- TGI (SK-MEL-5 melanoma): 27.2 µM
- TGI (OVCAR-4 ovarian): 36.6 µM
- TGI (OVCAR-5 ovarian): 32 µM
- TGI (SF-268 CNS): 7.6 µM
- TGI (BT-549 breast): 32.3 µM
- TGI (IGROV1 ovarian): 8.1 µM

SMILES: C=C1CC2(CCOc3ccc(Cl)cc32)OC1=O (stereo unspecified)
- TGI (HL-60(TB) leukemia): 8.84 µM
- TGI (UO-31 renal): 11.2 µM
- TGI (EKVX NSCLC): 21.5 µM
- TGI (HCT-15 colon): 4.26 µM
- TGI (M14 melanoma): 11.1 µM
- TGI (CAKI-1 renal): 15.4 µM
- TGI (MDA-MB-231 breast): 20.1 µM
- TGI (CCRF-CEM leukemia): 53 µM
- TGI (SR leukemia): 12.2 µM
- TGI (UACC-62 melanoma): 26.1 µM
- TGI (SNB-19 CNS): 32.6 µM
- TGI (SF-295 CNS): 21.5 µM
- TGI (PC-3 prostate): 10.6 µM
- TGI (786-0 renal): 7.13 µM
- TGI (K-562 leukemia): > 31.5 µM
- TGI (A498 renal): 30.2 µM
- TGI (HCC-2998 colon): 40.3 µM
- TGI (RXF 393 renal): 10.7 µM
- TGI (COLO 205 colon): 6.16 µM
- TGI (SF-539 CNS): 0.976 µM
- TGI (HOP-92 NSCLC): 12.4 µM
- TGI (MDA-N): 17.9 µM
- TGI (NCI/ADR-RES ovarian): 24.6 µM
- TGI (SK-MEL-28 melanoma): 23.3 µM
- TGI (T-47D breast): 32.3 µM
- TGI (NCI-H522 lung): 3.42 µM
- TGI (HS 578T breast): 23.4 µM
- TGI (MDA-MB-435): 14.1 µM
- TGI (MCF7 breast): 6.16 µM
- TGI (SW-620 colon): 5.44 µM
- TGI (LOX IMVI melanoma): 8.88 µM
- TGI (HOP-62 NSCLC): 22.7 µM
- TGI (SK-MEL-2 melanoma): 6.29 µM
- TGI (NCI-H226 lung): 11.2 µM
- TGI (HT29 colon): 24.2 µM
- TGI (MOLT-4 leukemia): 8.29 µM
- TGI (U251 CNS): 22.5 µM
- TGI (NCI-H23 lung): 19.5 µM
- TGI (KM12 colon): 28 µM
- TGI (RPMI-8226 leukemia): 9.35 µM
- TGI (TK-10 renal): 17.5 µM
- TGI (SN12C renal): 22.1 µM
- TGI (NCI-H460 lung): 12.6 µM
- TGI (SK-OV-3 ovarian): 26.2 µM
- TGI (OVCAR-3 ovarian): 7.52 µM
- TGI (HCT-116 colon): 6.98 µM
- TGI (DU-145 prostate): 27.4 µM
- TGI (SNB-75 CNS): 16.3 µM
- TGI (ACHN renal): 15.4 µM
- TGI (A549 NSCLC): 29.3 µM
- TGI (UACC-257 melanoma): 20.1 µM
- TGI (OVCAR-8 ovarian): 16.5 µM
- TGI (SK-MEL-5 melanoma): 14.2 µM
- TGI (OVCAR-4 ovarian): 4.33 µM
- TGI (OVCAR-5 ovarian): 23.4 µM
- TGI (SF-268 CNS): 16.1 µM
- TGI (BT-549 breast): 2.75 µM
- TGI (IGROV1 ovarian): 21.2 µM

SMILES: Nn1c(SCC(=O)O)nc2ccccc2c1=O
- TGI (MALME-3M melanoma): > 100 µM
- TGI (UO-31 renal): > 100 µM
- TGI (EKVX NSCLC): > 100 µM
- TGI (HCT-15 colon): > 100 µM
- TGI (M14 melanoma): > 100 µM
- TGI (CAKI-1 renal): > 100 µM
- TGI (MDA-MB-231 breast): > 100 µM
- TGI (CCRF-CEM leukemia): > 100 µM
- TGI (SR leukemia): > 100 µM
- TGI (UACC-62 melanoma): > 100 µM
- TGI (SNB-19 CNS): > 100 µM
- TGI (SF-295 CNS): > 100 µM
- TGI (PC-3 prostate): > 100 µM
- TGI (786-0 renal): > 100 µM
- TGI (K-562 leukemia): > 100 µM
- TGI (A498 renal): > 100 µM
- TGI (HCC-2998 colon): > 100 µM
- TGI (RXF 393 renal): > 100 µM
- TGI (COLO 205 colon): > 100 µM
- TGI (SF-539 CNS): > 100 µM
- TGI (HOP-92 NSCLC): > 100 µM
- TGI (MDA-N): > 100 µM
- TGI (NCI/ADR-RES ovarian): > 100 µM
- TGI (SK-MEL-28 melanoma): > 100 µM
- TGI (T-47D breast): > 100 µM
- TGI (NCI-H522 lung): > 100 µM
- TGI (HS 578T breast): > 100 µM
- TGI (MDA-MB-435): > 100 µM
- TGI (MCF7 breast): > 100 µM
- TGI (SW-620 colon): > 100 µM
- TGI (LOX IMVI melanoma): > 100 µM
- TGI (SK-MEL-2 melanoma): > 100 µM
- TGI (NCI-H226 lung): > 100 µM
- TGI (HT29 colon): > 100 µM
- TGI (MOLT-4 leukemia): > 100 µM
- TGI (U251 CNS): > 100 µM
- TGI (NCI-H23 lung): > 100 µM
- TGI (KM12 colon): > 100 µM
- TGI (RPMI-8226 leukemia): > 100 µM
- TGI (TK-10 renal): > 100 µM
- TGI (SN12C renal): > 100 µM
- TGI (NCI-H460 lung): > 100 µM
- TGI (OVCAR-3 ovarian): > 100 µM
- TGI (HCT-116 colon): > 100 µM
- TGI (DU-145 prostate): > 100 µM
- TGI (SNB-75 CNS): > 100 µM
- TGI (ACHN renal): > 100 µM
- TGI (A549 NSCLC): > 100 µM
- TGI (UACC-257 melanoma): > 100 µM
- TGI (OVCAR-8 ovarian): > 100 µM
- TGI (SK-MEL-5 melanoma): > 100 µM
- TGI (OVCAR-4 ovarian): > 100 µM
- TGI (OVCAR-5 ovarian): > 100 µM
- TGI (SF-268 CNS): > 100 µM
- TGI (BT-549 breast): > 100 µM
- TGI (IGROV1 ovarian): > 100 µM
